Laboratory results reported in PubChem BioAssay (NCI).
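A five-concentration, 48-hour dose response in 96-well plates underlies each endpoint, interpolated linearly between surrounding concentrations. Definition used: TGI = concentration required for complete inhibition of growth.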

What was measured:
Experiment in all cases: DTP human tumour cell line panel, 48 h
[1] = tested on: COLO 205 colon
[2] = tested on: M14 melanoma
[3] = tested on: OVCAR-3 ovarian
[4] = tested on: CAKI-1 renal
[5] = tested on: RXF 393 renal
[6] = tested on: MCF7 breast
[7] = tested on: MALME-3M melanoma
[8] = tested on: LOX IMVI melanoma
[9] = tested on: SF-539 CNS
[10] = tested on: OVCAR-5 ovarian
[11] = tested on: HOP-62 NSCLC
[12] = tested on: 786-0 renal
[13] = tested on: SF-295 CNS
[14] = tested on: TK-10 renal
[15] = tested on: SW-620 colon
[16] = tested on: NCI-H23 lung
[17] = tested on: K-562 leukemia
[18] = tested on: RPMI-8226 leukemia
[19] = tested on: SNB-19 CNS
[20] = tested on: NCI-H522 lung
[21] = tested on: OVCAR-4 ovarian
[22] = tested on: SK-MEL-2 melanoma
[23] = tested on: SF-268 CNS
[24] = tested on: OVCAR-8 ovarian
[25] = tested on: EKVX NSCLC
[26] = tested on: PC-3 prostate
[27] = tested on: HCT-116 colon
[28] = tested on: SN12C renal
[29] = tested on: UACC-257 melanoma
[30] = tested on: A549 NSCLC
[31] = tested on: BT-549 breast
[32] = tested on: NCI-H226 lung
[33] = tested on: T-47D breast
[34] = tested on: ACHN renal
[35] = tested on: HCT-15 colon
[36] = tested on: MDA-N
[37] = tested on: NCI-H460 lung
[38] = tested on: SK-MEL-28 melanoma
[39] = tested on: UACC-62 melanoma
[40] = tested on: HOP-92 NSCLC
[41] = tested on: HT29 colon
[42] = tested on: IGROV1 ovarian
[43] = tested on: A498 renal
[44] = tested on: MDA-MB-435
[45] = tested on: SNB-75 CNS
[46] = tested on: U251 CNS
[47] = tested on: DU-145 prostate
[48] = tested on: MDA-MB-231 breast
[49] = tested on: UO-31 renal
[50] = tested on: KM12 colon
[51] = tested on: SK-OV-3 ovarian
[52] = tested on: NCI/ADR-RES ovarian
[53] = tested on: HCC-2998 colon
[54] = tested on: HL-60(TB) leukemia
[55] = tested on: CCRF-CEM leukemia
[56] = tested on: MOLT-4 leukemia
[57] = tested on: SK-MEL-5 melanoma

Measured: TGI

CCOC(=O)[C@@H]1C2C(=C[C@H]3[C@H]1C(=O)N1CCCC[C@H]31)CCCN2C(=O)OCc1ccccc1 (some centres not stated)
56.8 µM: [22]
46.4 µM: [18]
96 µM: [43]
93.9 µM: [16]
82.6 µM: [37]
53.1 µM: [53]
81.2 µM: [52]
62.5 µM: [31]
38.2 µM: [56]
60.3 µM: [23]
77.6 µM: [26]
51.3 µM: [1]
39.2 µM: [39]
45.2 µM: [20]
45 µM: [54]
> 100 µM: all other assays above
